# Reference: US11337976B2 (Plexxikon Inc., priority 2011, dated 2022)
# Tested on: A375 melanoma cells (B-Raf V600E mutation)
# Assay: A375 (A375_P-ERK) cell activity / cell growth inhibition assay
# Type: cell-based, human
# Settings: Homo sapiens, A-375; A375 cells (text: A375_P-ERK)
# Procedure: Compounds are assessed in a variety of cell based assays. For example human cell lines with B-RafV600E mutation (A375 melanoma, SKMEL3 melanoma, and COLO205 colon adenocarcinoma), as well as tumorigenic cell lines with wild-type B-RAF (SW620 colon adenocarcinoma) or with Ras mutations (SKMEL2 melanoma and IPC298 melanoma).
# On day 1, cells are counted, then centrifuged in a conical tube for 5 minutes at 1000 rpm.
# On day 2, compound at a maximum concentration of 5 mM is serially diluted 1:3 (e.g. 10 μL with 30 μL dimethyl sulfoxide) for a total of 8 point titration with DMSO as a control. A 1 μL aliquot of each dilution point and control is added to 249 μL growth media and 50 μL is added to a well containing cells, providing 10 μM compound at the maximum concentration point. The cells are incubated for 3 days at 37° C. in 5% CO2.
# ATPlite is added 25 μL to each well, shake for 2 minutes, and the cells are incubated at room temperature for 10 minutes, then luminescence is read on Safire reader. The measured luminescence correlates directly with cell number, such that the reading as a function of compound concentration is used to determine the IC50 value.
row,IC50,Compound
1,< 1 µM,"CCN(C)S(=O)(=O)Nc1ccc(F)c(C(=O)c2c[nH]c3ncc(Cl)cc23)c1F [P-0012, 5-chloro-3-[3-[[ethyl(methyl)sulfamoyl]amino]-2,6-difluoro-benzoyl]-1H-pyrrolo[2,3-b]pyridine]"
2,< 1 µM,CCN(C)S(=O)(=O)Nc1ccc(F)c(C(=O)c2c[nH]c3ncc(-c4cnc(OC)nc4)cc23)c1F [P-0014]
3,< 1 µM,"O=C(c1c(F)ccc(NS(=O)(=O)N2CCCC2)c1F)c1c[nH]c2ncc(F)c(NCC3CC3)c12 [P-0016, N-[3-[4-(cyclopropylmethylamino)-5-fluoro-1H-pyrrolo[2,3-b]pyridine-3-carbonyl]-2,4-difluoro-phenyl]pyrrolidine-1-sulfonamide]"
4,< 1 µM,"CCN(C)S(=O)(=O)Nc1ccc(F)c(C(=O)c2c[nH]c3ncc(C#N)cc23)c1F [P-0017, 5-cyano-3-[3-[[ethyl(methyl)sulfamoyl]amino]-2,6-difluoro-benzoyl]-1H-pyrrolo[2,3-b]pyridine]"
5,< 1 µM,"CCN(C)S(=O)(=O)Nc1cccc(C(=O)c2c[nH]c3ncc(Cl)cc23)c1F [P-0018, 5-chloro-3-[3-[[ethyl(methyl)sulfamoyl]amino]-2-fluoro-benzoyl]-1H-pyrrolo[2,3-b]pyridine]"
6,< 1 µM,CCN(C)S(=O)(=O)Nc1cccc(C(=O)c2c[nH]c3ncc(-c4ccc(Cl)cc4)cc23)c1F [P-0019]
7,< 1 µM,CCN(C)S(=O)(=O)Nc1cccc(C(=O)c2c[nH]c3ncc(-c4cnc(OC)nc4)cc23)c1F [P-0020]
8,< 1 µM,"Cc1cnc2[nH]cc(C(=O)c3cccc(NS(=O)(=O)N4CCCC4)c3F)c2c1 [P-0023, N-[2-fluoro-3-(5-methyl-1H-pyrrolo[2,3-b]pyridine-3-carbonyl)phenyl]pyrrolidine-1-sulfonamide]"
9,< 1 µM,COc1ncc(-c2cnc3[nH]cc(C(=O)c4cccc(NS(=O)(=O)N(C)C5CC5)c4F)c3c2)cn1 [P-0025]
10,> 1 µM,CNS(=O)(=O)Nc1cccc(C(=O)c2c[nH]c3ncc(-c4cnc(OC)nc4)cc23)c1F [P-0026]
11,< 1 µM,CCN(C)S(=O)(=O)Nc1cccc(C(=O)c2c[nH]c3ncc(-c4ccc(C)nc4)cc23)c1F [P-0033]
12,< 1 µM,CCN(C)S(=O)(=O)Nc1cccc(C(=O)c2c[nH]c3ncc(-c4ccc(F)cc4)cc23)c1F [P-0034]
13,< 1 µM,CN(C)S(=O)(=O)Nc1cccc(C(=O)c2c[nH]c3ncc(-c4ccc(F)cc4)cc23)c1F [P-0035]
14,< 1 µM,"CCN(C)S(=O)(=O)Nc1cccc(C(=O)c2c[nH]c3ncc(Br)cc23)c1F [P-0038, 5-bromo-3-[3-[[ethyl(methyl)sulfamoyl]amino]-2-fluoro-benzoyl]-1H-pyrrolo[2,3-b]pyridine]"
15,< 1 µM,"CCN(C)S(=O)(=O)Nc1cccc(C(=O)c2c[nH]c3ncc(C#N)cc23)c1F [P-0039, 5-cyano-3-[3-[[ethyl(methyl)sulfamoyl]amino]-2-fluoro-benzoyl]-1H-pyrrolo[2,3-b]pyridine]"
16,< 1 µM,"CCCN(C)S(=O)(=O)Nc1cccc(C(=O)c2c[nH]c3ncc(-c4cnc(OC)nc4)cc23)c1F [P-0040, 3-[2-fluoro-3-[[methyl(propyl)sulfamoyl]amino]benzoyl]-5-(2-methoxypyrimidin-5-yl)-1H-pyrrolo[2,3-b]pyridine]"
17,< 1 µM,"Cn1cc(-c2cnc3[nH]cc(C(=O)c4cccc(NS(=O)(=O)CC5CC5)c4F)c3c2)cn1 [P-0042, 1-cyclopropyl-N-[2-fluoro-3-[5-(1-methylpyrazol-4-yl)-1H-pyrrolo[2,3-b]pyridine-3-carbonyl]phenyl]methanesulfonamide]"
18,< 1 µM,"O=C(c1cccc(NS(=O)(=O)N2CCCC2)c1F)c1c[nH]c2ncc(-c3cccnc3)cc12 [P-0043, N-[2-fluoro-3-[5-(3-pyridyl)-1H-pyrrolo[2,3-b]pyridine-3-carbonyl]phenyl]pyrrolidine-1-sulfonamide]"
19,< 1 µM,"COc1ncc(-c2cnc3[nH]cc(C(=O)c4cccc(NS(=O)(=O)N5CCCC5)c4F)c3c2)c(OC)n1 [P-0044, N-[3-[5-(2,4-dimethoxypyrimidin-5-yl)-1H-pyrrolo[2,3-b]pyridine-3-carbonyl]-2-fluoro-phenyl]pyrrolidine-1-sulfonamide]"
20,< 1 µM,"Cc1ccc(-c2cnc3[nH]cc(C(=O)c4cccc(NS(=O)(=O)N5CCCC5)c4F)c3c2)cn1 [P-0045, N-[2-fluoro-3-[5-(6-methyl-3-pyridyl)-1H-pyrrolo[2,3-b]pyridine-3-carbonyl]phenyl]pyrrolidine-1-sulfonamide]"
21,< 1 µM,"CC(C)c1ncc(-c2cnc3[nH]cc(C(=O)c4cccc(NS(=O)(=O)N5CCCC5)c4F)c3c2)cn1 [P-0047, N-[2-fluoro-3-[5-(2-isopropylpyrimidin-5-yl)-1H-pyrrolo[2,3-b]pyridine-3-carbonyl]phenyl]pyrrolidine-1-sulfonamide]"
22,< 1 µM,"COc1cc(-c2cnc3[nH]cc(C(=O)c4cccc(NS(=O)(=O)N5CCCC5)c4F)c3c2)ccc1C#N [P-0049, N-[3-[5-(4-cyano-3-methoxy-phenyl)-1H-pyrrolo[2,3-b]pyridine-3-carbonyl]-2-fluoro-phenyl]pyrrolidine-1-sulfonamide]"
23,< 1 µM,"N#CC1(c2ccc(-c3cnc4[nH]cc(C(=O)c5cccc(NS(=O)(=O)N6CCCC6)c5F)c4c3)cc2)CC1 [P-0050, N-[3-[5-[4-(1-cyanocyclopropyl)phenyl]-1H-pyrrolo[2,3-b]pyridine-3-carbonyl]-2-fluoro-phenyl]pyrrolidine-1-sulfonamide]"
24,< 1 µM,"CC(C)c1ncc(-c2cnc3[nH]cc(C(=O)c4cccc(NS(=O)(=O)N(C)C)c4F)c3c2)cn1 [P-0051, 3-[3-(dimethylsulfamoylamino)-2-fluoro-benzoyl]-5-(2-isopropylpyrimidin-5-yl)-1H-pyrrolo[2,3-b]pyridine]"
25,< 1 µM,"CN(C)S(=O)(=O)Nc1cccc(C(=O)c2c[nH]c3ncc(-c4cnc(C5CC5)nc4)cc23)c1F [P-0052, 5-(2-cyclopropylpyrimidin-5-yl)-3-[3-(dimethylsulfamoylamino)-2-fluoro-benzoyl]-1H-pyrrolo[2,3-b]pyridine]"
26,< 1 µM,"CN(C)S(=O)(=O)Nc1cccc(C(=O)c2c[nH]c3ncc(-c4ccc(C(F)(F)F)nc4)cc23)c1F [P-0053, 3-[3-(dimethylsulfamoylamino)-2-fluoro-benzoyl]-5-[6-(trifluoromethyl)-3-pyridyl]-1H-pyrrolo[2,3-b]pyridine]"
27,< 1 µM,"COc1cc(-c2cnc3[nH]cc(C(=O)c4cccc(NS(=O)(=O)N(C)C)c4F)c3c2)ccc1C#N [P-0054, 5-(4-cyano-3-methoxy-phenyl)-3-[3-(dimethylsulfamoylamino)-2-fluoro-benzoyl]-1H-pyrrolo[2,3-b]pyridine]"
28,< 1 µM,"CN(C)S(=O)(=O)Nc1cccc(C(=O)c2c[nH]c3ncc(-c4ccc(C5(C#N)CC5)cc4)cc23)c1F [P-0055, 5-[4-(1-cyanocyclopropyl)phenyl]-3-[3-(dimethylsulfamoylamino)-2-fluoro-benzoyl]-1H-pyrrolo[2,3-b]pyridine]"
29,< 1 µM,"CCN(C)S(=O)(=O)Nc1cccc(C(=O)c2c[nH]c3ncc(-c4cnc(C)nc4)cc23)c1F [P-0056, 3-[3-[[ethyl(methyl)sulfamoyl]amino]-2-fluoro-benzoyl]-5-(2-methylpyrimidin-5-yl)-1H-pyrrolo[2,3-b]pyridine]"
